In patent US6001849A, “Furopyridine, thienopyridine pyrrolopyridine useful in controlling chemical synaptic transmission” (Abbott Laboratories, priority 1997, dated 1999):
pKi: −log10 of the molar value. Counter-ions that a name gives are not always drawn. Like-named read-outs stand apart in the source and are kept apart here.

How the values were obtained:
[1] = target: neuronal nicotinic acetylcholine receptors; assay: [3H]-cytisine ligand-receptor binding assay (crude synaptic membranes from whole rat brain); settings: for binding to the nicotinic acetylcholine receptor (in words): preferred compounds
Description: For the purpose of identifying compounds as nicotinic acetylcholinergic agents which are capable of interacting with neuronal nicotinic acetylcholine receptors in the brain, a ligand-receptor binding assay was carried out as the initial screen. Compounds of the present invention were effective at interacting with neuronal nicotinic acetylcholine receptors as assayed for their ability to displace radioligand from neuronal nicotinic acetylcholine receptors labeled with [^3 H]-cytisine ([^3 H]-CYT).
A. Protocol For Determination of Nicotinic Acetylcholine Receptor Binding Potencies of Ligands
Binding of [^3 H]-CYT to nicotinic acetylcholine receptors was accomplished using crude synaptic membrane preparations from whole rat brain (Pabreza et al., Molecular Pharmacol., 1990, 39:9). Washed membranes were stored at -80° C. prior to use. Frozen aliquots were slowly thawed and resuspended in 20 volumes of buffer (containing: 120 mM NaCl, 5 mM KCl, 2 mM MgCl2, 2 mM CaCl2 and 50 mM Tris-Cl, pH 7.4 @4° C.). After centrifuging at 20,000×g for 15 minutes, the pellets were resuspended in 30 volumes of buffer. Homogenate (containing 125-150 μg protein) was added to triplicate tubes containing concentrations of test compound and [^3 H]-CYT (1.25 nM) in a final volume of 500 μL. Samples were incubated for 60 minutes at 4° C., then rapidly filtered through Whatman GF/B filters presoaked in 0.5% polyethylimine using 3×4 mL of ice-cold buffer. The filters were counted in 4 mL of Ecolume® (ICN). Nonspecific binding was determined in the presence of 10 μM (-)-nicotine and values were expressed as a percentage of total binding.

[2] = tested on: neuronal nicotinic acetylcholine receptors in IMR-32 cells; assay: 86Rb+ efflux assay in IMR-32 neuroblastoma cells; type: cell-based, human; settings: for IMR-32 % Inhibition @ (30 μM) / IMR-32 % Inhibition @ 10 μM: inhibition of efflux elicited by 100 μM (S)-nicotine; for IMR-32 % max: maximal response, percent relative to 100 μM (S)-nicotine
Description: B. Protocols for the Determination of Functional Effects of Nicotinic Acetylcholine Receptor Ligands on Synaptic Transmission
Experimental cells were seeded at a density of 500,000 cells/mL into a 24-well tissue culture dish. Plated cells were allowed to proliferate for at least 48 hours before loading with 2 μCi/mL of ^86 Rb^+ (35 Ci/mmol) overnigh at 37° C.

[3] = Table 1, [3H]-cytisine 1.25 nM, 4° C., 60 min, Ki by Cheng and Prusoff, read-out: [^3 H]-Cyt Binding
[4] = Table 2, [3H]-cytisine binding, read-out: Binding

| Compound | pKi [1, 3] | also measured |
| --- | --- | --- |
| CN1[C@@H]2CC[C@@H](C2)[C@H]1c1cc2nc(Cl)ccc2o1 [Example 44, 2-((1R,4t)-2-aza-3-(S)-bicyclo[2.2.1]heptyl)-5-chloro-2-methylfuro[3,2-b]pyridine dihydrochloride] | 8.30 | – |
| Clc1ccc2oc([C@H]3C[C@@H]4CC[C@H]3N4)cc2n1 (relative stereo) [Example 135, (±)-2-(7-aza-2-exo-bicyclo[2.2.1]heptyl)-5-chlorofuro[3,2-b]pyridine hydrochloride] | – | pKi [1, 4]: 8.49 |
| c1ccc(-c2cnc3cc([C@@H]4CCCN4)oc3c2)cc1 [Example 53, 2-((S)-pyrrolidinyl)-6-phenylfuro[3,2-b]pyridine dihydrochloride] | – | pKi [1, 4]: 6.47 |
| CN1CCC[C@H]1c1cc2cc(Cl)cnc2o1 [Example 14, 5-chloro-2-(1-methyl-2-(S)-pyrrolidinyl)-furo[2,3-b]pyridinedihydrochloride] | 6.74 | – |
| Clc1ccc2oc([C@H]3N[C@@H]4CC[C@H]3C4)cc2n1 [Example 43, 2-((1R,4S)-2-aza-3-(S)-bicyclo[2.2.1]heptyl)-5-chloro-furo[3,2-b]pyridine dihydrochloride] | 6.34 | – |
| CN1CCC[C@H]1c1cc2ncc(-c3ccccc3)cc2o1 [Example 54, 2-(1-methyl-2-(S)-pyrrrolidinyl)-6-phenylfuro[3,2-b]pyridinedihydrochloride] | – | pKi [1, 4]: 6.98 |
| CN1CCC[C@@H]1c1cc2nc(Cl)c(-c3ccccc3)cc2o1 [Example 56, 5-chloro-2-(1-methyl-2-(R)-pyrrolidinyl)-6-phenyl furo[3,2-b]pyridine hydrochloride] | – | pKi [1, 4]: 7.89 |
| CN1CCC[C@H]1c1cc2ncc(Br)cc2o1 [Example 47, 6-bromo-2-(1-methyl-2-(S)-pyrrolidinyl)furo[3,2-b]pyridine dihydrochloride] | 7.42 | – |
| CN1CCC[C@H]1c1cc2ccncc2o1 [Example 10, 2-(1-methyl-2-(S)-pyrrolidinyl)furo[2,3-c]pyridine dihydrochloride] | 6.68 | – |
| Clc1ccc2oc(C34CCCN3CCC4)cc2n1 [Example 23, 5-Chloro-2-(hexahydro-1H-7a-pyrrolizinyl)furo[3,2-b]pyridinehydrochloride] | 9.21 | binding to the nicotinic acetylcholine receptor (in words) [1]: most potent binders |
| c1cnc2cc([C@@H]3CC[C@@H]4CCCN43)oc2c1 [Example 21, endo-2-(Hexahydro-1H-3-(S)-pyrrolizinyl)furo[3,2-b]pyridine dihydrochloride] | 5.48 | IMR-32 % Inhibition @ (30 μM) ([2]; Table 1): 50%; IMR-32 % max ([2]; Table 1): 0% |
| Fc1ccc2oc([C@H]3C[C@@H]4CC[C@H]3N4)cc2n1 (relative stereo) [Example 136, (±)-2-(7-aza-2-exo-bicyclo[2.2.1]heptyl)-5-fluorofuro[3,2-b]pyridine hydrochloride] | – | pKi [1, 4]: 8.62 |
| c1cnc2cc([C@H]3CC[C@H]4CCCN43)oc2c1 [Example 18, endo-2-(Hexahydro-1H-3-(R)-pyrrolizinyl)furo[3,2-b]pyridine dihydrochloride] | 7.42 | IMR-32 % Inhibition @ (30 μM) ([2]; Table 1): 55% |
| c1cnc2oc([C@@H]3CCCN3)cc2c1 [Example 36, 2-(2-(S)-pyrrolidinyl)furo[2,3-b]pyridine hydrochloride] | 6.21 | – |
| Clc1cc2oc([C@H]3N[C@@H]4CC[C@H]3C4)cc2nc1Cl [Example 45, 2-((1R,4S)-2-aza-3-(S)-bicyclo[2.2.1]heptyl)-5,6-dichlorofuro[3,2-b]pyridine dihydrochloride] | 6.69 | – |
| Clc1cnc2cc([C@@H]3CCCN3)oc2c1 [Example 7, 6-chloro-2-(2-(S)-pyrrolidinyl)-furo[3,2-b]pyridine dihydrochloride] | 6.06 | – |
| CN1CCC[C@@H]1c1cc2nc(Cl)ccc2o1 [Example 32, 5-chloro-2-(1-methyl-2-(R)-pyrrolidinyl)-furo[3,2-b]pyridinehydrochloride] | 7.27 | – |
| c1cnc2cc([C@@H]3CC[C@H]4CCCN43)oc2c1 [Example 19, exo-2-(Hexahydro-1H-3-(S)-pyrrolizinyl)furo[3,2-b]pyridine dihydrochloride] | 5.40 | – |
| CN1CCC[C@H]1c1cc2cnccc2o1 [Example 37, 2-(1-methyl-2-(S)-pyrrolidinyl)furo[3,2-c]pyridine dihydrochloride] | 5.75 | – |
| Clc1nc2cc([C@H]3CCCN3)oc2cc1C=Cc1ccncc1 [Example 58, 5-chloro-2-(2-(R)-pyrrolidinyl)-6-(2-(4-pyridylethenyl)furo[3,2-b]pyridine hydrochloride] | – | pKi [1, 4]: 9.51; binding to the nicotinic acetylcholine receptor (in words) [1]: most potent binders |

| Compound | pKi [1, 3] | also measured |
| --- | --- | --- |
| Cc1ccc2sc(C34CCCN3CCC4)cc2n1 [Example 27, dihydrochloride] | 7.57 | – |
| c1cc2cc(C34CCCN3CCC4)oc2cn1 [Example 17, 2-(Hexahydro-1H-7a-pyrrolizinyl)furo[2,3-c]pyridine dihydrochloride] | 7.06 | – |
| 5-chloro-2-(1-methyl-2-(S)-pyrrolidinyl)-6-(3-pyridyl)furo[3,2-b]pyridine hydrochloride [Example 59] | – | pKi [1, 4]: 6.17 |
| Clc1cc2oc([C@@H]3CCCN3)cc2nc1Cl [Example 25, 5,6-Dichloro-2-(2-(S)-pyrrolidinyl)furo [3,2-b]pyridine hydrochloride] | 6.99 | – |
| CN1CCC[C@H]1c1cc2nccc(Cl)c2o1 [Example 51, 7-chloro-2-(1-methyl-2-(S)-pyrrolidinyl)furo[3,2-b]pyridine hydrochloride] | 6.35 | – |
| Clc1nc2cc([C@H]3CCCN3)oc2cc1-c1ccccc1 [Example 55, 2-(2-(R)-pyrrolidinyl)-5-chloro-6-phenyl furo[3,2-b]pyridinehydrochloride] | – | IMR-32 % max ([2]; Table 2): 32%; pKi [1, 4]: 9.80; in vitro binding (in words) ([1]; Tables 1 and 2): potent in vitro binding; binding to the nicotinic acetylcholine receptor (in words) [1]: most potent binders |
| CN1CCC[C@@H]1c1cc2nc(Cl)c(Cl)cc2o1 [Example 40, 5,6-Dichloro-2-(1-methyl-2-(R)-pyrrolidinyl)furo[3,2-b]pyridine hydrochloride] | 7.49 | – |
| Cl.Clc1nc2cc([C@H]3CCCN3)oc2cc1Br [Example 49, 6-bromo-5-chloro-2-(2-(R)-pyrrolidinyl)furo[3,2-b]pyridine hydrochloride] | 8.59 | IMR-32 % Inhibition @ 10 μM ([2]; Table 1): 10%; IMR-32 % max ([2]; Table 1): 1% |
| c1cnc2cc(CN3CCCC3)oc2c1 [Example 22, 1-Pyrrolidinylmethyl-(2-furo[3,2-b]pyridine)] | 6.95 | – |
| Cc1ccc2oc([C@@H]3CCCN3)cc2n1 [Example 5, 5-methyl-2-(2-(S)-pyrrolidinyl)furo[3,2-b]pyridine dihydrochloride] | 6.45 | – |
| CN1CCC[C@H]1c1cc2cccnc2o1 [Example 134, 2-(1-methyl-2-(S)-pyrrolidinyl)furo[2,3-b]pyidine hydrochloride] | – | pKi [1, 4]: 8.16 |
| Cl.Cl.c1cc2cc([C@H]3CCCN3)oc2cn1 [Example 34, 2-(2-(R)-pyrrolidinyl)furo[2,3-c]pyridine dihydrochloride] | 5.77 | IMR-32 % Inhibition @ 10 μM ([2]; Table 1): 2.8% |
| CN1CCC[C@@H]1c1cc2nc(Cl)c(Br)cc2o1 [Example 50, 6-bromo-5-chloro-2-(-1-methyl-2(R)-pyrrolidinyl)furo[3,2-b]pyridine hydrochloride] | 7.34 | – |
| Clc1ccc2oc([C@@H]3CCCN3)cc2n1 [Example 11, 5-chloro-2-(2-(S)-pyrrolidinyl)-furo[3,2-b]pyridine hydrochloride] | 7.24 | – |
| c1cnc2cc([C@H]3N[C@@H]4CC[C@H]3C4)oc2c1 [Example 41, 2-((1R,4S)-2-aza-3-(S)-bicyclo[2.2.1]heptyl)-furo[3,2-b]pyridine dihydrochloride] | 7.09 | – |
| Cc1ccc2oc([C@H]3CCCN3C)cc2n1 [Example 30, 5-methyl-2-(1-methyl-2-(R)-pyrrolidinyl)-furo[3,2-b]pyridinedihydrochloride] | 7.00 | – |
| Clc1cnc2oc([C@@H]3CCCN3)cc2c1 [Example 13, 5-chloro-2-(2-(S)-pyrrolidinyl)-furo[2,3-b]pyridine hydrochloride] | 5.35 | – |
| c1cnc2cc([C@H]3CC[C@@H]4CCCN43)oc2c1 [Example 20, exo-2-(Hexahydro-1H-3-(R)-pyrrolizinyl)furo[3,2-b]pyridine dihydrochloride] | 6.40 | – |
| Brc1cnc2cc([C@@H]3CCCN3)oc2c1 [Example 46, 6-bromo-2-(2-(S)-pyrrolidinyl)furo[3,2-b]pyridine dihydrochloride] | 6.33 | – |
